Test results from patent US10669283B2, “Compound and pharmacologically acceptable salt thereof” (MEIJI SEIKA PHARMA CO., LTD., priority 2016, dated 2020).
Read-outs that look alike come from different tables or passages of the source.

Tested on: PDE4
Assay: PDE4 inhibition, scintillation proximity assay (SPA);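 for PDE4 Inhibitory Activity (concentration for the inhibition rate of 50%): A below 100 nM B 100 to below 1000 nM C 1000 nM or more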
Format: biochemical
Summary of the method: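 Scintillation proximity read-out: [2,8-3H]-cAMP hydrolysis by PDE4 ran 120 min at room temperature in Tris-HCl pH 7.4 buffer with 8.3 mM MgCl2, 1.7 mM EGTA and 3 mg/mL BSA. Bead-bound product (YSi-SPA with ZnSO4, 15 min) counted; blank lacks enzyme, control has DMSO only.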

[1] = scintillation proximity assay (SPA), evaluated as classes A, B, C, read-out: PDE4 Inhibitory Activity (concentration for the inhibition rate of 50%)
[2] = scintillation proximity assay, class symbols, read-out: PDE4 Inhibitory Activity

Row | Structure (SMILES) | IC50 [1] | IC50 [2]
1 | OC(c1ccc(-c2nccs2)c2oc(N3CC4CCC(C3)N4)nc12)C(F)(F)F (centres unmarked) [Example 118, 1-(2-(3,8-Diazabicyclo[3.2.1]octan-3-yl)-7-(thiazol-2-yl)benzo[d]oxazol-4-yl)-2,2,2-trifluoroethan-1-ol] | < 100 nM | –
2 | CC(C)(O)c1cc(-c2nccs2)c2oc(N3CC4CCCC(C3)N4)nc2c1C(F)(F)F [Example 166, 2-(2-(3,9-Diazabicyclo[3.3.1]nonan-3-yl)-7-(thiazol-2-yl)-4-(trifluoromethyl)benzo[d]oxazol-5-yl)propan-2-ol] | < 100 nM | –
3 | COC(C)c1cc(-c2nccs2)c2oc(N3CC4CCC(C3)N4)nc2c1 (centres unmarked) [Example 110, 2-(3,8-Diazabicyclo[3.2.1]octan-3-yl)-5-(1-methoxyethyl)-7-(thiazol-2-yl)benzo[d]oxazole] | < 100 nM | –
4 | O=C(c1cc(-c2nccs2)c2oc(N3CC4CCC(C3)N4)nc2c1)N1CCCCC1 [Example 96, (2-(3,8-Diazabicyclo[3.2.1]octan-3-yl)-7-(thiazol-2-yl)benzo[d]oxazol-5-yl)(piperidin-1-yl)methanone] | < 100 nM | –
5 | FC(F)(F)c1cc(-c2nccs2)c2oc(N3CC4CCC(C3)N4)nc2c1 [Example 51, 2-(3,8-Diazabicyclo[3.2.1]octan-3-yl)-7-(thiazol-2-yl)-5-(trifluoromethyl)benzo[d]oxazole] | < 100 nM | –
6 | CC(O)(c1cc(-c2nccs2)c2oc(N3CC4CCCC(C3)N4)nc2c1)C(F)(F)F (centres unmarked) [Example 161, 2-(2-(3,9-Diazabicyclo[3.3.1]nonan-3-yl)-7-(thiazol-2-yl)benzo[d]oxazol-5-yl)-1,1,1-trifluoropropan-2-ol] | < 100 nM | –
7 | OC(c1ccc(-c2nccs2)c2oc(N3CC4CCC(C3)N4)nc12)C(F)F (centres unmarked) [Example 128, 1-(2-(3,8-Diazabicyclo[3.2.1]octan-3-yl)-7-(thiazol-2-yl)benzo[d]oxazol-4-yl)-2,2-difluoroethan-1-ol] | < 100 nM | –
8 | O=C(c1ccc(-c2nccs2)c2oc(N3CC4CCC(C3)N4)nc12)N1CCOCC1 [Example 116, (2-(3,8-Diazabicyclo[3.2.1]octan-3-yl)-7-(thiazol-2-yl)benzo[d]oxazol-4-yl)(morpholino)methanone] | < 100 nM | –
9 | OC(COc1ccc(-c2nccs2)c2oc(N3CC4CC(C3)N4)nc12)C(F)(F)F (centres unmarked) [Example 277, 3-((2-(3,6-Diazabicyclo[3.1.1]heptan-3-yl)-7-(thiazol-2-yl)benzo[d]oxazol-4-yl)oxy)-1,1,1-trifluoropropan-2-ol] | < 100 nM | –
10 | CC(O)c1ccc(-c2nccs2)c2oc(N3CC4CC(C3)N4)nc12 (centres unmarked) [Example 240, 1-(2-(3,6-Diazabicyclo[3.1.1]heptan-3-yl)-7-(thiazol-2-yl)benzo[d]oxazol-4-yl)ethan-1-ol] | < 100 nM | –
11 | CC(C)(CO)Oc1ccc(-c2nccs2)c2oc(N3CC4CC(C3)N4)nc12 [Example 268, 2-((2-(3,6-Diazabicyclo[3.1.1]heptan-3-yl)-7-(thiazol-2-yl)benzo[d]oxazol-4-yl)oxy)-2-methylpropan-1-ol] | < 100 nM | –
12 | FC(F)(F)c1c(Cl)cc(-c2ccccn2)c2oc(N3CC4CCC(C3)N4)nc12 [Example 11, 2-(3,8-Diazabicyclo[3.2.1]octan-3-yl)-5-chloro-7-(pyridin-2-yl)-4-(trifluoromethyl)benzo[d]oxazole] | < 100 nM | –
13 | OCc1ccc(-c2nccs2)c2oc(N3CC4CCC(C3)N4)nc12 [Example 132, (2-(3,8-Diazabicyclo[3.2.1]octan-3-yl)-7-(thiazol-2-yl)benzo[d]oxazol-4-yl)methanol] | < 100 nM | –
14 | O=C(O)COC(c1ccc(-c2nccs2)c2oc(N3CC4CC(C3)N4)nc12)C(F)(F)F (centres unmarked) [Example 253, 2-(1-(2-(3,6-Diazabicyclo[3.1.1]heptan-3-yl)-7-(thiazol-2-yl)benzo[d]oxazol-4-yl)-2,2,2-trifluoroethoxy)acetic acid] | < 100 nM | –
15 | COC(c1cc(-c2nccs2)c2oc(N3CC4CC(C3)N4)nc2c1OC(F)(F)F)C(F)F (centres unmarked) [Example 208, 2-(3,6-Diazabicyclo[3.1.1]heptan-3-yl)-5-(2,2-difluoro-1-methoxyethyl)-7-(thiazol-2-yl)-4-(trifluoromethoxy) benzo[d]oxazole] | < 100 nM | –
16 | CC(O)c1cc(-c2nccs2)c2oc(N3CC4CC(C3)N4)nc2c1OC(F)(F)F (centres unmarked) [Example 272, 1-(2-(3,6-Diazabicyclo[3.1.1]heptan-3-yl)-7-(thiazol-2-yl)-4-(trifluoromethoxy)benzo[d]oxazol-5-yl)ethan-1-ol] | < 100 nM | –
17 | CC(C)(O)c1cc(-c2nccs2)c2oc(N3CC4CCC(C3)N4)nc2c1 [Example 172, 2-(2-(3,8-Diazabicyclo[3.2.1]octan-3-yl)-7-(thiazol-2-yl)benzo[d]oxazol-5-yl)propan-2-ol] | < 100 nM | –
18 | CON=C(C)c1cc(-c2nccs2)c2oc(N3CC4CCC(C3)N4)nc2c1OC(F)(F)F (mixture of isomers) [Example 218, (E)-1-(2-(3,8-diazabicyclo[3.2.1]octan-3-yl)-7-(thiazol-2-yl)-4-(trifluoromethoxy)benzo[d]oxazol-5-yl)ethan-1-one O-methyloxime and (Z)-1-(2-(3,8-diazabicyclo[3.2.1]octan-3-yl)-7-(thiazol-2-yl)-4-(trifluoromethoxy)benzo[d]oxazol-5-yl)ethan-1-one O-methyloxime] | < 100 nM | –
19 | COC(c1cc(-c2nccs2)c2oc(N3CC4CC(C3)N4)nc2c1)C(F)(F)F (centres unmarked) [Example 144, 2-(3,6-Diazabicyclo[3.1.1]heptan-3-yl)-7-(thiazol-2-yl)-5-(2,2,2-trifluoro-1-methoxyethyl)benzo[d]oxazole] | < 100 nM | –
20 | CCOC(c1ccc(-c2nccs2)c2oc(N3CC4CCC(C3)N4)nc12)C(F)(F)F (centres unmarked) [Example 220, 2-(3,8-Diazabicyclo[3.2.1]octan-3-yl)-4-(1-ethoxy-2,2,2-trifluoroethyl)-7-(thiazol-2-yl)benzo[d]oxazole] | < 100 nM | –
21 | CNC(=O)c1cc(-c2nccs2)c2oc(N3CC4CCC(C3)N4)nc2c1 [Example 100, 2-(3,8-Diazabicyclo[3.2.1]octan-3-yl)-N-methyl-7-(thiazol-2-yl)benzo[d]oxazole-5-carboxamide] | < 100 nM | –
22 | OC(c1ccc(-c2nccs2)c2oc(N3CC4CCC(C3)N4O)nc12)C(F)(F)F (centres unmarked) [Example 378, 3-(7-(thiazol-2-yl)-4-(2,2,2-trifluoro-1-hydroxyethyl)benzo[d]oxazol-2-yl)-3,8-diazabicyclo[3.2.1] octan-8-ol] | – | 100 to 1000 nM
23 | CC(O)c1cc(-c2nccs2)c2oc(N3CC4CC(C3)N4)nc2c1OC(F)(F)F (centres unmarked) [Example 203, 1-(2-(3,6-Diazabicyclo[3.1.1]heptan-3-yl)-7-(thiazol-2-yl)-4-(trifluoromethoxy)benzo[d]oxazol-5-yl)ethan-1-ol] | < 100 nM | –
24 | c1csc(-c2ccc(C3CCC3)c3nc(N4CC5CC(C4)N5)oc23)n1 [Example 414, 2-(3,6-diazabicyclo[3.1.1]heptan-3-yl)-4-cyclobutyl-7-(thiazol-2-yl)benzo[d]oxazole] | – | < 100 nM
25 | Oc1cc(-c2nccs2)c2oc(N3CC4CCC(C3)N4)nc2c1 [Example 63, 2-(3,8-Diazabicyclo[3.2.1]octan-3-yl)-7-(thiazol-2-yl) benzo[d]oxazol-5-ol] | < 100 nM | –
26 | CCOC(=O)c1ccc(-c2nccs2)c2oc(N3CC4CCC(C3)N4)nc12 [Example 112, Ethyl 2-(3,8-diazabicyclo[3.2.1]octan-3-yl)-7-(thiazol-2-yl) benzo[d]oxazole-4-carboxylate] | < 100 nM | –
